# Assay results as given in article PMC3367910 (PLoS ONE, 2012).
# Test system: T1, chlorpyrifos hydrolase (CPH)
# T1 construct: native enzyme purified from mycelial cell extract; N-terminal MEPDGELSALTQGANS; gene not cloned
# Format: biochemical, Cladosporium cladosporioides
row,Compound,Km
1,COP(=S)(OC)Oc1ccc([N+](=O)[O-])cc1 [Methyl parathion],12.5 ± 1.4 µM
2,CCOC(=O)CC(SP(=S)(OC)OC)C(=O)OCC (centres unmarked) [Malathion],44.4 ± 2.1 µM
3,"CCOP(=S)(OCC)Oc1nc(Cl)c(Cl)cc1Cl [Chlorpyrifos, O, O-diethyl O-(3,5,6-trichloro-2-pyridyl) phosphorothioate]",6.8 ± 0.4 µM
4,CCOP(=S)(OCC)Oc1ccc([N+](=O)[O-])cc1 [Parathion],9.8 ± 0.3 µM
5,COP(N)(=O)SC (centres unmarked) [Methamidophos],31.8 ± 1.7 µM
